Laboratory results as given in patent US6762170B1, “2-(purin-9-yl)-tetrahydrofuran-3,4-diol derivatives” (SmithKlineBeecham Corporation, priority 1998, dated 2004).

How the values were obtained:
Assay type in all cases: cell-based
Adenosine 1 receptor = biological target: T1, Adenosine 1 receptor (Homo sapiens, UniProt P30542); assay: Agonist activity against adenosine 1 receptor subtype (CHO cells, forskolin-enhanced cAMP, SPAP reporter); details: EC50 ratio to NECA; transfected CHO cells, forskolin-enhanced cAMP reflected by SPAP
T1 construct: expressed in transfected cells; host or cells: Chinese hamster ovary (CHO) cells, co-transfected with a CRE-SPAP reporter
T1 sequence (P30542 1-326): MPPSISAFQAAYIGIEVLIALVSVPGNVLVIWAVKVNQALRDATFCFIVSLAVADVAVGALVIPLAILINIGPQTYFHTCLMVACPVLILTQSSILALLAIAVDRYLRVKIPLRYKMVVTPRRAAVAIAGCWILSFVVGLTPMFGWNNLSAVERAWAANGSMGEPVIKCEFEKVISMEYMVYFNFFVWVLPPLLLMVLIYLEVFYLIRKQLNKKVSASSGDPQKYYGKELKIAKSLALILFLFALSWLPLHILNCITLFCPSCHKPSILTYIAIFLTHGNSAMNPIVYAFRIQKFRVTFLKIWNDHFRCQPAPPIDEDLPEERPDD
Protocol: (§1) (1) Agonist Activity Against Adenosine 2a, Adenosine 1 and Adenosine 3 Receptor Subtypes.
(§2) Agonist selectivity of compounds against other human adenosine receptors is determined using Chinese hamster ovary (CHO) cells transfected with the gene for the relevant human adenosine receptor following a method based on that of Castanon and Spevak, 1994. The CHO cells are also transfected with cyclic AMP response elements promoting the gene for secreted placental alkaline phosphatase (SPAP) (Wood, 1995). The effect of test compounds may be determined by their effects on basal levels of cAMP (A2a) or on forskolin-enhanced cAMP (A1 and A3) as reflected by changes in levels of SPAP. EC50 values for compounds may then be determined as a ratio to that of the non-selective agonist N-ethyl carboxamide adenosine (NECA).
(§3) Values given in the Table are EC50 values as a ratio of that of NECA.

Adenosine 2a receptor = biological target: T2, Adenosine 2a receptor (Homo sapiens, UniProt P29274); assay: Agonist activity against adenosine 2a receptor subtype (CHO cells, cAMP response element/SPAP reporter); details: EC50 ratio to NECA; transfected CHO cells, basal cAMP reflected by SPAP
T2 construct: expressed in transfected cells; host or cells: Chinese hamster ovary (CHO) cells, co-transfected with a CRE-SPAP reporter
T2 sequence (P29274 whole entry): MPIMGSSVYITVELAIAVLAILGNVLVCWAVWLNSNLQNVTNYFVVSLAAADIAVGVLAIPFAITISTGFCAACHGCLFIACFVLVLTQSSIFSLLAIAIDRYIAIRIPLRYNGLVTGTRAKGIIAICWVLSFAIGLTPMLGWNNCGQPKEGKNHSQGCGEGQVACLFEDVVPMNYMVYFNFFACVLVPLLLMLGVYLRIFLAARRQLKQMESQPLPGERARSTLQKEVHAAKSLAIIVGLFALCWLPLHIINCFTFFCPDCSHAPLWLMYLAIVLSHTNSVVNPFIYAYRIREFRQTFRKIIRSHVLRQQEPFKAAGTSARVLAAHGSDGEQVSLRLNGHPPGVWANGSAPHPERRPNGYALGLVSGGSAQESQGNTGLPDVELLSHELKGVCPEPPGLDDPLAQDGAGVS
Protocol: as §1, §2, §3

Adenosine 3 receptor = biological target: T3, Adenosine 3 receptor (Homo sapiens, UniProt P0DMS8); assay: Agonist activity against adenosine 3 receptor subtype (CHO cells, forskolin-enhanced cAMP, SPAP reporter); details: EC50 ratio to NECA; transfected CHO cells, forskolin-enhanced cAMP reflected by SPAP
T3 construct: expressed in transfected cells; host or cells: Chinese hamster ovary (CHO) cells, co-transfected with a CRE-SPAP reporter
T3 sequence (P0DMS8 1-318): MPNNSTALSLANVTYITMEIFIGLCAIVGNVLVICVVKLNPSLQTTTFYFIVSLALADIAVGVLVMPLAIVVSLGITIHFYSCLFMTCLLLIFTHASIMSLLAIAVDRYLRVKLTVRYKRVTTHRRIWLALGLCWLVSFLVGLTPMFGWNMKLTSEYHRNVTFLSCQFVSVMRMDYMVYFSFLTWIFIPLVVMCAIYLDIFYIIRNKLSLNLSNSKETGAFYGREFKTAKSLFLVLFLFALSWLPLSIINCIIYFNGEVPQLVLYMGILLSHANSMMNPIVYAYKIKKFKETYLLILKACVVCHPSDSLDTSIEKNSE
Protocol: as §1, §2, §3

SMILES: CCc1cc([C@H]2O[C@@H](n3cnc4c(NCCC(C)(C)C)nc(NCCc5cn(C)cn5)nc43)[C@H](O)[C@@H]2O)on1.O=CO.O=CO [Example 7, (2R,3R,4S,5S)-2-{6-(3,3-Dimethyl-butylamino)-2-[2-(1-methyl-1H-imidazol-4-yl)-ethylamino]-purin-9-yl}-5-(3-ethyl-isoxazol-5-yl)-tetrahydro-furan-3,4-diol diformate]
- A1 (EC50 values as a ratio of that of NECA) (Adenosine 1 receptor): >=309.4
- A2a (EC50 values as a ratio of that of NECA) (Adenosine 2a receptor): 0.35
- A3 (EC50 values as a ratio of that of NECA) (Adenosine 3 receptor): >312

SMILES: CCc1cc(C2OC(n3cnc4c(NC5CCCC5)nc(NCCN5CCCCC5)nc43)C(O)C2O)on1 [Example 8, (2S,3S,4R,5R)-2-(3-Ethyl-isoxazol-5-yl)-5-[6-(cyclopentylamino)-2-(2-piperidin-1-yl)-ethylamino)-purin-9-yl]-tetrahydro-furan-3,4-diol diformate]
- A1 (EC50 values as a ratio of that of NECA) (Adenosine 1 receptor): 49.1
- A2a (EC50 values as a ratio of that of NECA) (Adenosine 2a receptor): 0.67
- A3 (EC50 values as a ratio of that of NECA) (Adenosine 3 receptor): >310

SMILES: CCc1cc(C2OC(n3cnc4c(NC5CCSCC5)nc(NCCNC(=N)N)nc43)C(O)C2O)on1 (stereo not drawn) [Example 9, N-{2-[9-[5S-(3-Ethyl-isoxazol-5-yl)-3R,4S-dihydroxy-tetrahydro-furan-2R-yl]-6-tetrahydro-thiopyran-4-ylamino)-9H-purin-2-ylamino]-ethyl}-guanidine diformate]
- A1 (EC50 values as a ratio of that of NECA) (Adenosine 1 receptor): 132.3
- A2a (EC50 values as a ratio of that of NECA) (Adenosine 2a receptor): 2.05
- A3 (EC50 values as a ratio of that of NECA) (Adenosine 3 receptor): >323

SMILES: CCc1cc(C2OC(n3cnc4c(Nc5ccc(O)c(F)c5)nc(NCCN5CCCCC5)nc43)C(O)C2O)on1.O=CO.O=CO [Example 10, (2S,3S,4R,5R)-2-(3-Ethyl-isoxazol-5-yl)-5-[6-(3-fluoro-4-hydroxy-phenylamino)-2-(2-piperidin-1-yl-ethylamino)-purin-9-yl]-tetrahydro-furan-3,4-diol diformate]
- A1 (EC50 values as a ratio of that of NECA) (Adenosine 1 receptor): 59.38
- A2a (EC50 values as a ratio of that of NECA) (Adenosine 2a receptor): 2.07
- A3 (EC50 values as a ratio of that of NECA) (Adenosine 3 receptor): >180

SMILES: CCc1cc(C2OC(n3cnc4c(NCCS(=O)(=O)NC)nc(NCCN5CCCCC5)nc43)C(O)C2O)on1 (stereo not drawn) [Example 11, 2-[9-[5S-(3-Ethyl-isoxazol-5-yl)-3R,4S-dihydroxy-tetrahydro-furan-2R-yl]-2-(2-piperidin-1-yl-ethylamino)-9H-purin-6-ylamino]-ethanesulfonic acid methylamide diformate]
- A1 (EC50 values as a ratio of that of NECA) (Adenosine 1 receptor): 32.9
- A2a (EC50 values as a ratio of that of NECA) (Adenosine 2a receptor): 3.66
- A3 (EC50 values as a ratio of that of NECA) (Adenosine 3 receptor): >303

SMILES: CCc1cc([C@H]2O[C@@H](n3cnc4c(NC5CCSCC5)nc(NCCN5CCCCC5)nc43)[C@H](O)[C@@H]2O)on1.O=CO.O=CO [Example 12, (2S,3S,4R,5R)-2-(3-Ethyl-isoxazol-5-yl)-5-[2-(2-piperidin-1-yl-ethylamino)-6-(tetrahydro-thiopyran-4-ylamino)-purin-9-yl]-tetrahydro-furan-3,4-diol diformate]
- A1 (EC50 values as a ratio of that of NECA) (Adenosine 1 receptor): 260.3
- A2a (EC50 values as a ratio of that of NECA) (Adenosine 2a receptor): 3.39
- A3 (EC50 values as a ratio of that of NECA) (Adenosine 3 receptor): >410

SMILES: CCc1cc([C@H]2O[C@@H](n3cnc4c(NC5CCOCC5)nc(NCCc5ccccn5)nc43)[C@H](O)[C@@H]2O)on1.O=CO.O=CO [Example 13, (2S,3S,4R,5R)-2-(3-Ethyl-isoxazol-5-yl)-5-[2-(2-pyridin-2-yl-ethylamino)-6-(tetrahydro-pyran-4-ylamino)-purin-9-yl]-tetrahydro-furan-3,4-diol diformate]
- A1 (EC50 values as a ratio of that of NECA) (Adenosine 1 receptor): 61.9
- A2a (EC50 values as a ratio of that of NECA) (Adenosine 2a receptor): 3.03
- A3 (EC50 values as a ratio of that of NECA) (Adenosine 3 receptor): >146

SMILES: CCc1cc([C@H]2O[C@@H](n3cnc4c(NC5CCOCC5)nc(NCCN5CCCCC5)nc43)[C@H](O)[C@@H]2O)on1.O=CO.O=CO [Example 14, (2S,3S,4R,5R)-2-(3-Ethyl-isoxazol-5-yl)-5-[2-(2-piperidin-1-yl-ethylamino)-6-(tetrahydro-pyran-4-ylamino)-purin-9-yl]-tetrahydro-furan-3,4-diol diformate]
- A1 (EC50 values as a ratio of that of NECA) (Adenosine 1 receptor): 77.1
- A2a (EC50 values as a ratio of that of NECA) (Adenosine 2a receptor): 4.99
- A3 (EC50 values as a ratio of that of NECA) (Adenosine 3 receptor): >254
